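Briefly, cells in 96-well plates were exposed to five compound concentrations for 48 h, and endpoints were estimated by linear interpolation. TGI marks complete inhibition of growth.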
Assays:
Experiment in all cases: growth of human tumour cells (NCI), 48 h
SW-620 colon = tested on: SW-620 colon
KM12 colon = tested on: KM12 colon
SK-MEL-28 melanoma = tested on: SK-MEL-28 melanoma
SK-MEL-5 melanoma = tested on: SK-MEL-5 melanoma
MOLT-4 leukemia = tested on: MOLT-4 leukemia
NCI-H226 lung = tested on: NCI-H226 lung
NCI-H460 lung = tested on: NCI-H460 lung
MALME-3M melanoma = tested on: MALME-3M melanoma
CAKI-1 renal = tested on: CAKI-1 renal
NCI-H522 lung = tested on: NCI-H522 lung

| Structure (SMILES) | TGI (SW-620 colon) [µM] | TGI (KM12 colon) [µM] | TGI (SK-MEL-28 melanoma) [µM] | TGI (SK-MEL-5 melanoma) [µM] | TGI (MOLT-4 leukemia) [µM] | TGI (NCI-H226 lung) [µM] | TGI (NCI-H460 lung) [µM] | TGI (MALME-3M melanoma) [µM] | TGI (CAKI-1 renal) [µM] | TGI (NCI-H522 lung) [µM] |
| --- | --- | --- | --- | --- | --- | --- | --- | --- | --- | --- |
| CCOC(=O)c1cnc(-n2[nH]c(C)c(CCO)c2=O)[nH]c1=O | > 100 | > 100 | > 100 | > 100 | > 100 | > 100 | > 100 | > 100 | > 100 |  |
| CC1(C)O[C@H]2Cn3c(c(C#N)c4ccccc43)[C@H]2O1 |  | > 100 | > 100 | > 100 |  |  | > 100 | > 100 | > 100 | > 100 |
| O=C1C2CCCCC2C(=O)N1n1c(Cc2ccc(Cl)cc2)n[nH]c1=O (centres undefined) | > 100 | > 100 |  | > 100 | > 100 | > 100 | > 100 | > 100 | > 100 | > 100 |
| CCC(C)[C@H](NC(=O)[C@H](Cc1ccccc1)NC(=O)N(CC)c1ccccc1)C(=O)N[C@@H](CC(C)C)C(=O)OC (some centres undefined) | > 100 | 61.3 | > 100 | 59.8 | 39.7 | 46.2 |  | > 100 | > 100 |  |
| COc1ccc2oc(=N)c(C(=O)Nc3cccc4ccccc34)cc2c1 | > 100 | > 100 | > 100 | > 100 |  | > 100 | > 100 | 49.8 | > 100 |  |
| COc1ccc(Cn2c(C)nc3c2C(=O)c2ccccc2C3=O)cc1 | > 75 | 26.7 | > 75 | 16.6 | 30 | 48.2 | 9.74 | 19 |  | 15.5 |
| CCOC(=O)CCCn1nnc(C(=O)OCC)c1C(=O)OCC | > 100 | > 100 | > 100 | > 100 | > 100 | > 100 | > 100 | > 100 | > 100 |  |
| COCOc1ccc(C(=O)C(C)c2ccc(OCOC)cc2OCOC)c(O)c1 (centres undefined) | > 100 |  | > 100 | > 100 | > 100 |  | > 100 | > 100 | > 100 | > 100 |
| O=S(=O)(Oc1ccc2oc3ccccc3c2c1-c1c(OS(=O)(=O)C(F)(F)F)ccc2oc3ccccc3c12)C(F)(F)F | > 100 | > 100 | > 100 | > 100 | > 100 | > 100 | > 100 |  | > 100 | > 100 |
| CNC(=O)c1ccccc1-[s+]1c2ccccc2c(=O)n1C (centres undefined) | > 100 | > 100 | > 100 | > 100 | > 100 | > 100 |  | > 100 | > 100 | > 100 |
| Nc1nc2c(=O)c3ccccc3sc2s1 | > 100 | > 100 | > 100 | > 100 | > 100 | 79.1 | > 100 |  | 91.6 |  |
| O=C1c2ccccc2C(=O)N1n1c(Cc2ccccc2)n[nH]c1=O | > 100 | > 100 | > 100 | > 100 | > 100 | > 100 | > 100 | > 100 | > 100 |  |
| c1csc(-c2ccc(-c3ccc(-c4ccc(-c5cccs5)s4)s3)s2)c1 | > 100 |  |  | > 100 | > 100 | > 100 | > 100 |  | > 100 |  |
| COc1c2c(c3c(c1C1OC(C)[C@@H](C)O1)CC(C)(C)O3)C(=O)c1ccccc1C2=O (some centres undefined) | 63.6 | > 100 | > 100 | > 100 |  | > 100 | > 100 | > 100 | > 100 |  |
| O=C(Cc1ccccc1)NCCc1ccc(O)c(O)c1 | > 100 | > 100 | > 100 | > 100 | > 100 | > 100 | > 100 | > 100 |  | > 100 |
| CO/C(=N\N=C\c1cc(OC)ccc1OC)c1ccncc1 | > 10 | > 10 | > 10 | > 10 | > 10 | > 10 | > 10 | > 10 |  |  |
| CCc1nn(CN2CCN(C)CC2)c(=S)n1/N=C\c1ccc(-c2ccc([N+](=O)[O-])cc2)o1 |  | > 100 |  | > 100 | > 100 | 86.4 | > 100 | > 100 | > 100 | > 100 |
| O=c1cc(CNC2CCCC2)[nH]c(=O)[nH]1 | > 100 | > 100 | > 100 | > 100 | > 100 |  | > 100 | > 100 | > 100 | > 100 |
| CCC(C)[C@@H](NCc1ccccc1)[C@H](OCc1ccccc1)[C@@H]1COC(C)(C)O1 (some centres undefined) | 48.5 | 44.3 | 71.4 | 29 | 62.3 | 30.6 |  | 45.8 |  |  |
| Cc1nc2c(=S)[nH]ncc2[nH]1 | > 100 | > 100 | > 100 | > 100 |  | > 100 |  | > 100 | > 100 | > 100 |
| O=C1N[C@H]2c3c(Cl)sc(Cl)c3/C(=N/O)[C@H]2O1 | > 100 | > 100 | > 100 | > 100 | > 100 |  | > 100 | > 100 | > 100 |  |
| O=C(CP(c1ccccc1)c1ccccc1)c1cccc(C(=O)CP(c2ccccc2)c2ccccc2)c1 | > 100 | > 100 | > 100 | > 100 | 48 | > 100 | > 100 |  | > 100 |  |
| CC1=NN(c2nc(N)nc(-c3ccccc3S(N)(=O)=O)n2)C(C)(C)C1 | > 100 | > 100 | > 100 | > 100 | 79.8 | > 100 | > 100 |  | > 100 | > 100 |
| C1=C(c2ccccc2)CN(c2ccccc2)OC1 | > 100 | > 100 | > 100 |  | > 100 | > 100 | > 100 | > 100 | > 100 | > 100 |
